These are literature values, as cited in US20250332127A1, “SYSTEM AND METHOD FOR DELIVERING THERAPEUTIC AGENTS TO THE UTERINE CAVITY” (priority 2021, published 2025).

Read-outs that look alike come from different tables or passages of the source. Some results are limits rather than exact numbers.

Consider `O=C=O` [CO2], for which the viscosity (at 20 degrees of Celsius) is 0.0147 centipoise.

For `O=C(O)C(Cl)(Cl)Cl` [trichloroacetic acid], under “trichloroacetic acid as used as therapeutic agent”, the viscosity is at least 1 centipoise.
